According to ChEMBL document CHEMBL1144409, “Synthesis of new quinoxaline-2-carboxylate 1,4-dioxide derivatives as anti-Mycobacterium tuberculosis agents” (J Med Chem, 2005):
Values after ≈ are worked out from the molar mass of the structure shown.

Columns and labels:
[1] = Selectivity index (ratio of IC50 and MIC) value was determined; details: cercopithecidae
[2] = tested on: Mycobacterium tuberculosis; experiment: In vitro actual minimum inhibitory concentration value of the compound was determined against Mycobacterium tuberculosis; type: functional
[3] = Compound was tested for cytotoxicity in Vero cells; type: cell-based; details: Chlorocebus sabaeus
[4] = Compound was tested for cytotoxicity in Vero cells; Insoluble; type: cell-based, Chlorocebus sabaeus
[5] = tested on: Mycobacterium tuberculosis; experiment: In vitro effective concentration of the compound causing 99%reduction in residualmycobacterium tuberculosis growth after 7 days compared to untreated control; type: functional; details: 168 h
[6] = tested on: Mycobacterium tuberculosis; experiment: In vitro ratio of EC90 and MIC value of the compound was determined; type: functional
[7] = tested on: Mycobacterium tuberculosis; experiment: In vitro effective concentration of the compound causing 90%reduction in residualmycobacterium tuberculosis growth after 7 days compared to untreated control; type: functional; details: 168 h
[8] = tested on: Mycobacterium tuberculosis; experiment: In vitro actual minimum inhibitory concentration value of the compound was determined against Mycobacterium tuberculosis H37Rv strain; Range is 0.015-0.125; type: functional
[9] = tested on: Mycobacterium tuberculosis; experiment: In vitro minimum inhibitory concentration value against Mycobacterium tuberculosis H37Rv strain in alamar assay; type: functional
[10] = tested on: Mycobacterium tuberculosis; experiment: In vitro minimum inhibitory concentration value against Mycobacterium tuberculosis H37Rv strain in bactec assay; type: functional
[11] = tested on: Mycobacterium tuberculosis; experiment: In vitro minimum inhibitory concentration value against Mycobacterium tuberculosis erdman strain in alamar assay; type: functional
[12] = tested on: Mycobacterium tuberculosis; experiment: In vitro actual minimum inhibitory concentration value against Mycobacterium tuberculosis; type: functional

SMILES | SI [1] | MIC [2] [µg/mL] | IC50 [3] [µg/mL] | EC99 [5] [µg/mL] | Ratio [6] | EC90 [7] [µg/mL] | further results
COC(=O)c1c(C)[n+]([O-])c2ccc(OC)cc2[n+]1[O-] | 33.7 | 1.56 (≈ 5.9 µM) | 52.6 (≈ 199 µM) | – | – | – | –
C=CCc1c(C(=O)OC)[n+]([O-])c2cc(C)c(C)cc2[n+]1[O-] | – | > 6.25 | – | – | – | – | –
COC(=O)c1c(C)[n+]([O-])c2ccccc2[n+]1[O-] | > 6.41 | 1.56 (≈ 6.66 µM) | > 10 | – | – | – | –
COC(=O)c1c(Cc2ccccc2)[n+]([O-])c2cc(C)c(C)cc2[n+]1[O-] | – | 3.13 (≈ 9.25 µM) | – | – | – | – | IC50 [4]: Insoluble
COC(=O)c1c(Cc2ccccc2)[n+]([O-])c2cc(F)c(F)cc2[n+]1[O-] | – | > 6.25 | – | – | – | – | –
C=CCc1c(C(=O)OC)[n+]([O-])c2cc(Cl)c(Cl)cc2[n+]1[O-] | 0.93 | 6.25 (≈ 19 µM) | 5.8 (≈ 17.6 µM) | – | – | – | –
COC(=O)c1c(Cc2ccccc2)[n+]([O-])c2ccccc2[n+]1[O-] | 470 | 0.1 (≈ 0.322 µM) | 47 (≈ 151 µM) | > 2 | 1.5 | 0.15 (≈ 0.483 µM) | –
COC(=O)c1c(C(C)(C)C)[n+]([O-])c2ccccc2[n+]1[O-] | – | > 6.25 | – | – | – | – | –
CO[C@H]1/C=C/O[C@@]2(C)Oc3c(C)c(O)c4c(O)c(c(/C=N/N5CCN(C)CC5)c(O)c4c3C2=O)NC(=O)/C(C)=C\C=C\[C@H](C)[C@H](O)[C@@H](C)[C@@H](O)[C@@H](C)[C@H](OC(C)=O)[C@@H]1C [RIFAMPIN] | – | – | – | – | – | – | MIC [8]: 0.125 µg/mL (≈ 0.152 µM)
COC(=O)c1c(C(C)(C)C)[n+]([O-])c2cc(C)c(C)cc2[n+]1[O-] | – | > 6.25 | – | – | – | – | –
COC(=O)c1c(C(C)(C)C)[n+]([O-])c2ccc(Cl)cc2[n+]1[O-] | – | > 6.25 | – | – | – | – | –
CCc1c(C(=O)OC)[n+]([O-])c2ccccc2[n+]1[O-] | 30.1 | 1.56 (≈ 6.28 µM) | 47 (≈ 189 µM) | 3.32 | 0.56 | 0.88 (≈ 3.54 µM) | –
CCOC(=O)COC(=O)c1c(CC)[n+]([O-])c2cc(Cl)c(Cl)cc2[n+]1[O-] | 6.1 | 0.2 (≈ 0.514 µM) | 1.22 (≈ 3.13 µM) | – | – | – | –
COC(=O)c1c(C(C)(C)C)[n+]([O-])c2cc(Cl)c(Cl)cc2[n+]1[O-] | – | > 6.25 | – | – | – | – | –
CCc1c(C(=O)OC)[n+]([O-])c2cc(C)ccc2[n+]1[O-] | > 40.1 | 1.56 (≈ 5.95 µM) | > 62.5 | – | – | – | –
COC(=O)c1c(Cc2ccccc2)[n+]([O-])c2ccc(OC)cc2[n+]1[O-] | > 80.1 | 0.78 (≈ 2.29 µM) | > 62.5 | – | – | – | –
COC(=O)c1c(Cc2ccccc2)[n+]([O-])c2ccc(Cl)cc2[n+]1[O-] | 76 | 0.1 (≈ 0.29 µM) | 7.6 (≈ 22 µM) | 0.08 | 0.01 | 0.0005 (≈ 0.00145 µM) | –
COC(=O)c1c(C)[n+]([O-])c2cc(C)c(C)cc2[n+]1[O-] | > 20 | 3.13 (≈ 11.9 µM) | > 62.5 | 6.15 | 0.52 | 1.64 (≈ 6.25 µM) | –
CCc1c(C(=O)OC)[n+]([O-])c2cc(Cl)c(Cl)cc2[n+]1[O-] | > 20 | < 0.2 | 4 (≈ 12.6 µM) | 5.99 | >3.15 | 0.63 (≈ 1.99 µM) | –
COC(=O)c1c(C)[n+]([O-])c2cc(Cl)c(Cl)cc2[n+]1[O-] | 8.4 | 0.2 (≈ 0.66 µM) | 1.68 (≈ 5.54 µM) | – | – | – | –
CCc1c(C(=O)OC)[n+]([O-])c2cc(F)c(F)cc2[n+]1[O-] | 0.77 | 1.56 (≈ 5.49 µM) | 1.2 (≈ 4.22 µM) | – | – | – | –
COC(=O)c1c(Cc2ccccc2)[n+]([O-])c2ccc(C)cc2[n+]1[O-] | 144 | 0.39 (≈ 1.2 µM) | 56 (≈ 173 µM) | 3.79 | 2.9 | 1.13 (≈ 3.48 µM) | –
COCCc1c(C(=O)OC)[n+]([O-])c2cc(Cl)c(Cl)cc2[n+]1[O-] | 11.5 | 0.39 (≈ 1.12 µM) | 4.5 (≈ 13 µM) | > 1.56 | >4 | > 1.56 | –
CCc1c(C(=O)OC)[n+]([O-])c2cc(OC)ccc2[n+]1[O-] | 6.4 | 6.25 (≈ 22.5 µM) | 39.9 (≈ 144 µM) | – | – | – | –
CCc1c(C(=O)OC)[n+]([O-])c2cc(C)c(C)cc2[n+]1[O-] | > 10 | 6.25 (≈ 22.6 µM) | > 62.5 | – | – | – | MIC [9]: 0.39 µg/mL (≈ 1.41 µM); MIC [10]: 0.2 µg/mL (≈ 0.724 µM); MIC [11]: 0.39 µg/mL (≈ 1.41 µM)
COC(=O)c1c(C)[n+]([O-])c2cc(F)c(F)cc2[n+]1[O-] | 3.8 | 0.39 (≈ 1.44 µM) | 1.48 (≈ 5.48 µM) | – | – | – | –
CCc1c(C(=O)OC)[n+]([O-])c2cc(Cl)ccc2[n+]1[O-] | > 50 | 0.2 (≈ 0.708 µM) | > 10 | 1.14 | 2.3 | 0.46 (≈ 1.63 µM) | –
COC(=O)c1c(Cc2ccccc2)[n+]([O-])c2cc(Cl)c(Cl)cc2[n+]1[O-] | – | – | – | – | – | – | MIC [9]: ≤ 3.13 µg/mL; MIC [10]: 6.25 µg/mL (≈ 16.5 µM); MIC [12]: 6.25 µg/mL (≈ 16.5 µM); MIC [11]: ≤ 3.13 µg/mL
CCOC(=O)COC(=O)c1c(CC)[n+]([O-])c2ccc(Cl)cc2[n+]1[O-] | 1.2 | 1.56 (≈ 4.4 µM) | 1.89 (≈ 5.33 µM) | – | – | – | –
COC(=O)c1c(C)[n+]([O-])c2ccc(C)cc2[n+]1[O-] | > 40.1 | 1.56 (≈ 6.28 µM) | > 62.5 | 5.83 | 1.24 | 1.94 (≈ 7.82 µM) | –
